From patent US8053467B2, “Flavor improving agent, and food and drink containing the same” (Takasago International Corporation, priority 2006, dated 2011)

Columns and labels:
[1] = Bitterness threshold by sensory evaluation test (panel of 9 experts); format: in vivo; details: for bitterness at the maximum concentration: at 0.1% by weight, the maximum concentration (1000 times the acetal threshold)
Experimental: 100 mg of 5-hydroxymethyl-2-furaldehyde bis(5-formylfurfuryl)acetal obtained in Example 1 was dissolved in 1 mL of ethanol, and 100 mL of water was added to produce 0.1% by weight of a 1 wt. % ethanol solution. This solution was diluted 10-fold with water repeatedly to prepare samples for evaluation. In consideration of the taste of ethanol itself, a 1 wt. % ethanol solution was prepared and diluted 10-fold with water repeatedly to prepare blanks respectively corresponding to the samples for evaluation. The evaluation was performed by a panel of 9 experts. The sensory evaluation test was performed from a sample/blank having a lower concentration. In the order of blanks to samples, the experts held 200 mg of each sample/blank in the mouth and evaluated the difference in taste.

[2] = Sensory evaluation of the flavor improving agents for the sugar-free sweetener; format: in vivo
Experimental: A sugar-free sweetener having the formulation shown in Table 2 was obtained, and 12 g of the sugar-free sweetener was dissolved in 1 kg of ion exchanged water to obtain a 1.2 wt. % aqueous solution. 60 mg of the flavor improving agent in Example 2 was added to 300 g of the aqueous solution to obtain a sugar-free sweetener solution sample containing 0.02% by weight of the flavor improving agent. The content of 5-hydroxymethyl-2-furaldehyde bis(5-formylfurfuryl)acetal in the sugar-free sweetener was 0.00014% by weight.
This sample was evaluated with regard to the items shown in Table 3 by a sensory evaluation method of comparing a sample with a control product. The evaluation was performed by a panel of 5 trained experts. The sample was evaluated with the points in the range of −3 to +3, with setting the control product at 0 point. The control product was not provided with a flavor improving agent (provided with ethanol).
The numerals in the table are the averages of the 5 experts.

[3] = literature report; cited from earlier work
[4] = Sensory evaluation of the flavor improving agents for the coffee drink; format: in vivo; details: summary of Table 10
Experimental: 60 mg of the flavor improving agent in Example 2 was added to 300 g of commercially available canned coffee to obtain a coffee drink containing 0.02% by weight of the flavor improving agent. The content of 5-hydroxymethyl-2-furaldehyde bis(5-formylfurfuryl)acetal in this coffee drink was 0.00014% by weight.
This coffee drink was evaluated with regard to the items shown in Table 10 by a sensory evaluation method of comparing a sample with a control product. The evaluation was performed by a panel of 5 trained experts. Sensory evaluation of the coffee drink was carried out with the points in the range of −3 to +3, with setting the control product at 0 point, in the same manner as in Example 9. The control product was not provided with a flavor improving agent (provided with ethanol).

[5] = same type of test as Example 9, agents prepared as in Example 2 with formulas (2) and (3), also with 100 times the amount
[6] = sugar-free sweetener solution, summary of Table 3

`O=Cc1ccc(COC(OCc2ccc(C=O)o2)c2ccc(CO)o2)o1` [acetal compound of the present invention, 5-hydroxymethyl-2-furaldehyde bis(5-formylfurfuryl)acetal] showed a bitterness threshold ([1]; 1 ppm expressed in %) of 0.0001%, a bitterness threshold ([1]; 1 ppm expressed in % by weight) of 0.0001 % by weight and a bitterness threshold ([1]; 10-fold dilutions in water vs ethanol blanks, panel of 9 experts) of 1 ppm. For the same compound, the “bitterness threshold converted to the molar concentration” value ([1]; converted from 1 ppm) was “about 10^−3 mM”.

In the case of `O=Cc1ccc(CO)o1` [formula (2), 5-hydroxymethyl-2-furaldehyde], the “bitterness at the maximum concentration” value [1] is listed as “did not provide bitterness”, the “flavor improving effect in words” value [2, 5] is listed as “None of the agents exhibited any flavor improving effect and provided various unpleasant tastes including astringency” and the reported taste [3] is listed as “unpleasant taste”.

In the case of `O=Cc1ccc(COCc2ccc(C=O)o2)o1` [formula (3)], the “bitterness at the maximum concentration” value [1] is listed as “did not provide bitterness”, the “flavor improving effect in words” value [2, 5] is listed as “None of the agents exhibited any flavor improving effect and provided various unpleasant tastes including astringency” and the reported taste [3] is listed as “unpleasant taste”.

In the case of `C[C@@H]1O[C@@H](O[C@H]2[C@H](Oc3cc(O)c4c(c3)O[C@H](c3ccc(O)cc3)CC4=O)O[C@H](CO)[C@@H](O)[C@@H]2O)[C@H](O)[C@H](O)[C@H]1O` [naringin], the “flavor effect in words” value [4] is reported as “medicine-like unnatural bitterness and are poor in attractiveness”.

For `O.O.O.O.O.O.O.O.O.O.O.O.O=S(=O)([O-])[O-].O=S(=O)([O-])[O-].[Al+3].[K+]` [potassium alum], the “flavor improving effect in words” value [2, 6] was “poor effect of reducing astringency or improving the sense of volume”.

For diheterolevulosan II, the “flavor effect in words” value [4] was “medicine-like unnatural bitterness and are poor in attractiveness”.

In the case of αG hesperidin, the “flavor improving effect in words” value [2, 6] is reported as “poor effect of reducing astringency or improving the sense of volume”.
